From ChEMBL document CHEMBL3085759, “Structure-activity relationship (SAR) and preliminary mode of action studies of 3-substituted benzylthioquinolinium iodide as anti-opportunistic infection agents” (Eur J Med Chem, 2013)
Values after ≈ are worked out from the molar mass of the structure shown. Active and inactive are the calls of the source. The calls are words filed in the database; no cut-off is given here.

Experiments:
Saccharomyces cerevisiae [1] = test: Antimicrobial activity against wild type Saccharomyces cerevisiae assessed as increase in sensitivity measured as survival at 20 umol/L by spectrophotometry relative to control; type: functional
Staphylococcus aureus [2] = test: Antimicrobial activity against Staphylococcus aureus ATCC 29213 by Alamar blue method; type: functional, organism-based; details: Staphylococcus aureus, ATCC 29213; for IC50: read-out: IC50
[3] = Cytotoxicity against african green monkey Vero cells after 48 hrs by Neutral Red dye assay; type: cell-based; details: chlorocebus sabaeus, read-out: TC50
Pichia kudriavzevii [4] = test: Ratio of amphotericin B IC50 to compound IC50 for Candida krusei ATCC 6258 by Alamar blue method; type: functional
Cryptococcus neoformans [5] = test: Ratio of amphotericin B IC50 to compound IC50 for Cryptococcus neoformans ATCC 90113 by Alamar blue method; type: functional
Cryptococcus neoformans [6] = test: Antimicrobial activity against Cryptococcus neoformans ATCC 90113 by Alamar blue method; type: functional, organism-based
Pichia kudriavzevii [7] = test: Antimicrobial activity against Candida krusei ATCC 6258 by Alamar blue method; type: functional, organism-based
[8] = Selectivity index, ratio of TC50 for african green monkey Vero cells to IC50 for Cryptococcus neoformans ATCC 90113; type: toxicity, cell-based; details: read-out: Selectivity Index
Saccharomyces cerevisiae [9] = test: Antimicrobial activity against Saccharomyces cerevisiae expressing ydj1 mutant gene assessed as increase in sensitivity at 20 umol/L by spectrophotometry relative to wild type; type: functional
Saccharomyces cerevisiae [10] = test: Antimicrobial activity against Saccharomyces cerevisiae expressing rad52 mutant gene assessed as increase in sensitivity at 20 umol/L by spectrophotometry relative to wild type; type: functional
[11] = tested on: Mycobacterium intracellulare; test: Antimicrobial activity against Mycobacterium intracellulare ATCC 23068 by Alamar blue method; type: functional, organism-based
Candida albicans = test: Antimicrobial activity against Candida albicans ATCC 90028 by Alamar blue method; type: functional, organism-based
Saccharomyces cerevisiae [12] = test: Antimicrobial activity against Saccharomyces cerevisiae expressing snf2 mutant gene assessed as increase in sensitivity at 20 umol/L by spectrophotometry relative to wild type; type: functional
Staphylococcus aureus [13] = test: Antimicrobial activity against methicillin-resistant Staphylococcus aureus ATCC 33591 by Alamar blue method; type: functional, organism-based
Pichia kudriavzevii [14] = test: Ratio of fluconazole MFC to compound MFC for Candida krusei ATCC 6258 by Alamar blue method; type: functional
Aspergillus fumigatus = test: Antimicrobial activity against Aspergillus fumigatus ATCC 204305 by Alamar blue method; type: functional, organism-based
Saccharomyces cerevisiae [15] = test: Antimicrobial activity against Saccharomyces cerevisiae expressing msh2 mutant gene assessed as increase in sensitivity at 20 umol/L by spectrophotometry relative to wild type; type: functional
Nakaseomyces glabratus [16] = test: Antimicrobial activity against Candida glabrata by Alamar blue method; type: functional, organism-based
Vero = test: Cytotoxicity against african green monkey Vero cells at 10 ug/ml after 48 hrs by Neutral Red dye assay; type: cell-based; details: chlorocebus sabaeus
Nakaseomyces glabratus [17] = test: Antimicrobial activity against Candida glabrata at 20 ug/ml by Alamar blue method; type: functional, organism-based
Nakaseomyces glabratus [18] = test: Ratio of fluconazole MFC to compound MFC for Candida glabrata by Alamar blue method; type: functional

SMILES | MBC (Staphylococcus aureus [2]) | MIC (Staphylococcus aureus [2]) | IC50 (Staphylococcus aureus [2]) | MFC (Cryptococcus neoformans [6]) | MIC (Cryptococcus neoformans [6]) | IC50 (Pichia kudriavzevii [7]) | MFC (Pichia kudriavzevii [7]) | MIC (Pichia kudriavzevii [7]) | IC50 [11] | MBC [11] | MIC [11] | IC50 (Candida albicans) | MFC (Candida albicans) | MIC (Candida albicans) | IC50 (Staphylococcus aureus [13]) | MBC (Staphylococcus aureus [13]) | MIC (Staphylococcus aureus [13]) | IC50 (Nakaseomyces glabratus [16]) | MFC (Nakaseomyces glabratus [16]) | MIC (Nakaseomyces glabratus [16]) | also measured
Clc1ccc(CSc2cc3ccccc3[n+](CCCCCC3CCCCC3)c2)cc1.[I-] | 0.31 µg/mL | 0.16 µg/mL | 0.05 µg/mL | 0.08 µg/mL | 0.08 µg/mL | 0.07 µg/mL | 0.16 µg/mL | 0.16 µg/mL | 1.6 µg/mL | 2.5 µg/mL | 2.5 µg/mL | 0.33 µg/mL | 0.63 µg/mL | 0.63 µg/mL | 0.06 µg/mL | 0.31 µg/mL | 0.16 µg/mL | 0.44 µg/mL | 1.3 µg/mL | 1.3 µg/mL | Activity (Saccharomyces cerevisiae [1]): 31%; CC50 at 48 h [3]: 1.3 µg/mL; Ratio IC50 (Pichia kudriavzevii [4]): 3; Ratio IC50 (Cryptococcus neoformans [5]): 4; selectivity ratio [8]: 26; fold change (FC) (Saccharomyces cerevisiae [9]): 7.5; fold change (FC) (Saccharomyces cerevisiae [10]): 2.9; fold change (FC) (Saccharomyces cerevisiae [12]): 10; Ratio IC50 (Pichia kudriavzevii [14]): 310; IC50 (Aspergillus fumigatus): 0.69 µg/mL; MFC (Aspergillus fumigatus): 1.3 µg/mL; MIC (Aspergillus fumigatus): 1.3 µg/mL; fold change (FC) (Saccharomyces cerevisiae [15]): 1.1
Cc1cccc(CSc2cc3ccccc3[n+](CCCCCC3CCCCC3)c2)c1.[I-] | 2.5 µg/mL | 1.3 µg/mL | 0.64 µg/mL | 0.63 µg/mL | 0.63 µg/mL | 0.67 µg/mL | 2.5 µg/mL | 2.5 µg/mL | 7.2 µg/mL | 10 µg/mL | 10 µg/mL | 2 µg/mL | 5 µg/mL | 5 µg/mL | 0.72 µg/mL | 2.5 µg/mL | 1.3 µg/mL | 3.3 µg/mL | 10 µg/mL | 5 µg/mL | CC50 at 48 h [3]: 5 µg/mL; IC50 (Aspergillus fumigatus): 5.8 µg/mL; MFC (Aspergillus fumigatus): 10 µg/mL; MIC (Aspergillus fumigatus): 10 µg/mL
OC(Cn1cncn1)(Cn1cncn1)c1ccc(F)cc1F [FLUCONAZOLE] | – | – | – | 13 µg/mL (≈ 42.4 µM) | 6.3 µg/mL (≈ 20.6 µM) | 27 µg/mL (≈ 88.2 µM) | 50 µg/mL (≈ 163 µM) | 50 µg/mL (≈ 163 µM) | – | – | – | 0.12 µg/mL (≈ 0.392 µM) | inactive | inactive | – | – | – | 27 µg/mL (≈ 88.2 µM) | inactive | inactive | IC50 (Cryptococcus neoformans [6]): 0.21 µg/mL (≈ 0.686 µM); Activity (Vero): Non-toxic; Activity (Nakaseomyces glabratus [17]): inactive
COc1cccc2c1C(=O)c1c(O)c3c(c(O)c1C2=O)C[C@@](O)(C(=O)CO)C[C@@H]3O[C@H]1C[C@H](N)[C@H](O)[C@H](C)O1 [DOXORUBICIN] | – | – | – | – | – | – | – | – | – | – | – | – | – | – | – | – | – | – | – | – | fold change (FC) (Saccharomyces cerevisiae [10]): >100
[I-].c1ccc2cc(Sc3cc4ccccc4[n+](CCCCCC4CCCCC4)c3)ccc2c1 | 2.5 µg/mL | 0.63 µg/mL | 0.34 µg/mL | 0.16 µg/mL | 0.16 µg/mL | 0.09 µg/mL | 0.63 µg/mL | 0.63 µg/mL | 4.2 µg/mL | 10 µg/mL | 5 µg/mL | 0.42 µg/mL | 2.5 µg/mL | 1.3 µg/mL | 0.35 µg/mL | 2.5 µg/mL | 0.63 µg/mL | 0.87 µg/mL | 2.5 µg/mL | 2.5 µg/mL | IC50 (Cryptococcus neoformans [6]): 0.09 µg/mL; selectivity ratio [8]: > 111; Ratio (Pichia kudriavzevii [14]): 79; IC50 (Aspergillus fumigatus): 1.2 µg/mL; MFC (Aspergillus fumigatus): 2.5 µg/mL; MIC (Aspergillus fumigatus): 2.5 µg/mL; Ratio (Nakaseomyces glabratus [18]): 79
Cc1ccc(CSc2cc3ccccc3[n+](CCCCCC3CCCCC3)c2)cc1.[I-] | 2.5 µg/mL | 0.63 µg/mL | 0.39 µg/mL | 0.31 µg/mL | 0.31 µg/mL | 0.27 µg/mL | 1.3 µg/mL | 1.3 µg/mL | 7.5 µg/mL | 10 µg/mL | 10 µg/mL | 1.4 µg/mL | 5 µg/mL | 2.5 µg/mL | 0.49 µg/mL | 2.5 µg/mL | 1.3 µg/mL | 3.1 µg/mL | 5 µg/mL | 5 µg/mL | CC50 at 48 h [3]: 6.8 µg/mL; IC50 (Aspergillus fumigatus): 4.5 µg/mL; MFC (Aspergillus fumigatus): 10 µg/mL; MIC (Aspergillus fumigatus): 10 µg/mL
N#Cc1ccccc1CSc1cc2ccccc2[n+](CCCCCC2CCCCC2)c1.[I-] | 5 µg/mL | 1.3 µg/mL | 0.68 µg/mL | 2.5 µg/mL | 1.3 µg/mL | 1.5 µg/mL | 5 µg/mL | 5 µg/mL | 6.8 µg/mL | 10 µg/mL | 10 µg/mL | 1.6 µg/mL | 10 µg/mL | 5 µg/mL | 0.97 µg/mL | 10 µg/mL | 2.5 µg/mL | > 20 µg/mL | > 20 µg/mL | > 20 µg/mL | IC50 (Cryptococcus neoformans [6]): 0.5 µg/mL; Activity (Vero): Non-toxic; IC50 (Aspergillus fumigatus): 11 µg/mL; MFC (Aspergillus fumigatus): 20 µg/mL; MIC (Aspergillus fumigatus): 20 µg/mL
N#Cc1cccc(CSc2cc3ccccc3[n+](CCCCCC3CCCCC3)c2)c1.[I-] | 2.5 µg/mL | 1.3 µg/mL | 0.69 µg/mL | 5 µg/mL | 2.5 µg/mL | 1.1 µg/mL | 2.5 µg/mL | 2.5 µg/mL | 4.8 µg/mL | 10 µg/mL | 5 µg/mL | 4.3 µg/mL | 20 µg/mL | 10 µg/mL | 0.72 µg/mL | 5 µg/mL | 1.3 µg/mL | 4.7 µg/mL | 10 µg/mL | 10 µg/mL | IC50 (Cryptococcus neoformans [6]): 1.1 µg/mL; Activity (Vero): Non-toxic; IC50 (Aspergillus fumigatus): 8.6 µg/mL; MFC (Aspergillus fumigatus): 20 µg/mL; MIC (Aspergillus fumigatus): 20 µg/mL
FC(F)(F)c1ccc(CSc2cc3ccccc3[n+](CCCCCC3CCCCC3)c2)cc1.[I-] | 1.3 µg/mL | 0.63 µg/mL | 0.28 µg/mL | 0.31 µg/mL | 0.31 µg/mL | 0.46 µg/mL | 1.3 µg/mL | 1.3 µg/mL | 4.7 µg/mL | 10 µg/mL | 10 µg/mL | 1.4 µg/mL | 2.5 µg/mL | 2.5 µg/mL | 0.36 µg/mL | 1.3 µg/mL | 0.63 µg/mL | 2.7 µg/mL | 5 µg/mL | 5 µg/mL | CC50 at 48 h [3]: 7.9 µg/mL; IC50 (Aspergillus fumigatus): 2.9 µg/mL; MFC (Aspergillus fumigatus): 5 µg/mL; MIC (Aspergillus fumigatus): 5 µg/mL
